Values of other authors in US20030152643A1, “Combination of an alpha-adrenergic antagonist and a nitrogen oxide donor for treating female sexual dysfunctions” (priority 1998, published 2003).

Tested on: erectile dysfunctions
Conditions: administration in men; Zorgniotti and Lizza 1994

N=C(N)NCCC[C@H](N)C(=O)O [L-arginine]
effect on erectile dysfunctions in men: favorable effect on erectile dysfunctions in certain cases
